Test results from patent US20130280741A1, “METHOD AND SYSTEM OF DETECTING DIOXIN-LIKE COMPOUNDS” (priority 2012, published 2013).

Experiments:
AHR-RL and ARNT-YFP = biological target: T1, AHR-RL and ARNT-YFP (Homo sapiens, UniProt P35869); experiment: BRET assay in AAPA cells; format: cell-based
T1 construct: expressed in transfected cells
Experimental: (§1) Tetracycline-regulated expression cells (T-REx™ cells) (Invitrogen, Carlsbad, Calif., USA) were transfected with AHR-RL, AIP-HIS and P23-HIS by lipofectamin 2000™ transfection reagent (Invitrogen, Carlsbad, Calif., USA) according to the manufacturer's instructions. Transfected cells were cultured in DMEM growth medium (Gibco, USA) supplemented with 10% fetal bovine serum (FBS), (Gibco, USA), 5 μg/ml Blasticidin, 250 μg/ml Zeocin and 500 μg/ml G418. The optimal cell lines were then transfected with ARNT-YFP or HSP90-YFP and selected with 200 μg/ml Hygromycin to obtain a stable cell line transfected with ARNT-YFP (called as “AAPA cells”) and obtain a stable cell line transfected with HSP90-YFP (called as “AAPH cells”).
For the inducible protein expression and AHR complex formation, the AAPA cells, which were stably co-transfected with AHR-RL, AIP-HIS, P23-HIS and ARNT-YFP, were prepared following the method as described in Example 2 and then were treated with 1 μg/ml tetracycline for 48 hours. Then, the treated cells were washed by phosphate-buffered saline (PBS) twice.
For dioxin detection, different concentrations of 3-methylcholanthrene (3MC) (Boehringer Mannheim, Mannheim, Germany) were mixed with the cells and cultured in a 96-well white polystyrene plate (Corning, USA) at 37° C. for 1 hour. The BRET signals were determined by addition of coelenterazine, a substrate of Renilla Luciferase, to a final concentration of […].

AHR-RL and HSP90-YFP = biological target: T2, AHR-RL and HSP90-YFP (Homo sapiens, UniProt P35869); experiment: BRET assay in AAPH cells; format: cell-based; conditions: different concentrations, 37° C., dose-dependent (FIG. 2C)
T2 construct: expressed in transfected cells
T2 sequence (P35869 11-848): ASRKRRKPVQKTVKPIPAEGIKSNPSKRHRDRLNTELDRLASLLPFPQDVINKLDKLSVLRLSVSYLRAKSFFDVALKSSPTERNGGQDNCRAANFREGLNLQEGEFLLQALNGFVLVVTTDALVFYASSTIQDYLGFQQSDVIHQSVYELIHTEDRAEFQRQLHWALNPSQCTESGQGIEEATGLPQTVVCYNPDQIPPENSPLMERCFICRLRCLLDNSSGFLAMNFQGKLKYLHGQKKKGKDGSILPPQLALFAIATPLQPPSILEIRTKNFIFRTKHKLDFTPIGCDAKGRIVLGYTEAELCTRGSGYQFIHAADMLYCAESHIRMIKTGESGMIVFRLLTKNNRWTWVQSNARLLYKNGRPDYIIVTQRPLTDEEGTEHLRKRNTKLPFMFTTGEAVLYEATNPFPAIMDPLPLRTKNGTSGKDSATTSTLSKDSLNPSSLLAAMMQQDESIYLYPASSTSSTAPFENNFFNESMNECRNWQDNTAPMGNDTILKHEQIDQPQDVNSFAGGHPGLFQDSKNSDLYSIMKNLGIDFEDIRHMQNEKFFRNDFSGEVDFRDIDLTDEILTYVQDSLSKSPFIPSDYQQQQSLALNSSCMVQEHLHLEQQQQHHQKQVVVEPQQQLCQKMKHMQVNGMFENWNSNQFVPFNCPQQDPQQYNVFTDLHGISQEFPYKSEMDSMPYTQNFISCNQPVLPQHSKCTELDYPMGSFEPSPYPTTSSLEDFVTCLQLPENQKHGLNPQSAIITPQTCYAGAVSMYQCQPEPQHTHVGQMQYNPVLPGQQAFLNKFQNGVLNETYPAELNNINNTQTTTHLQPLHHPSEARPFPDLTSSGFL
T2 sequence (P08238 whole entry partner): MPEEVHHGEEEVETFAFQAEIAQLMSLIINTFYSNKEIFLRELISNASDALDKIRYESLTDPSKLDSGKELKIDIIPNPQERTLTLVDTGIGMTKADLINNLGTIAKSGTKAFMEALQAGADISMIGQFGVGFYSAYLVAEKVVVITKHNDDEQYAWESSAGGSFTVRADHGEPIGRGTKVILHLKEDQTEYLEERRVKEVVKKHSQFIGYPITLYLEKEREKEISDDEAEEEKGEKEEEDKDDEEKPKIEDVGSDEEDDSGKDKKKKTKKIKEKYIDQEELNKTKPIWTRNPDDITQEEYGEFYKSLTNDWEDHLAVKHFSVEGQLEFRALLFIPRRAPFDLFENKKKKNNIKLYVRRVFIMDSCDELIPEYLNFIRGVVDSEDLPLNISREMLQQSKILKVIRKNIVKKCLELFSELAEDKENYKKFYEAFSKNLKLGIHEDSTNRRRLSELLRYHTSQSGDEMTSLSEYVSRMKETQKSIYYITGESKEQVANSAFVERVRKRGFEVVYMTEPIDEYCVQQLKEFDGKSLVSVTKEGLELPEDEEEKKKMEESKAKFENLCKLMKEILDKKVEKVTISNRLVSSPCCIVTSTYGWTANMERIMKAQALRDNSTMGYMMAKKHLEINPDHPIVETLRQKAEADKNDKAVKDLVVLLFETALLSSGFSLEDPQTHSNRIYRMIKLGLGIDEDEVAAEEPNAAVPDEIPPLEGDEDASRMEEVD
T2 sequence (O00170 whole entry partner): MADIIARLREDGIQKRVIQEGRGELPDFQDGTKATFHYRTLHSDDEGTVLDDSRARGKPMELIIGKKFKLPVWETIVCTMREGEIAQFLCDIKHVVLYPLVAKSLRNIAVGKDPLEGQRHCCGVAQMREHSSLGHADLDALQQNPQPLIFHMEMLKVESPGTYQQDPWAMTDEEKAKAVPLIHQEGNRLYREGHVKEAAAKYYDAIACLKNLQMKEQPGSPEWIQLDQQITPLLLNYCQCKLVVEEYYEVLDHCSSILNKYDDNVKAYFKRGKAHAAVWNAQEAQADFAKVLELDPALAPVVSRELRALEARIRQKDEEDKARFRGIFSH
T2 sequence (Q15185 whole entry partner): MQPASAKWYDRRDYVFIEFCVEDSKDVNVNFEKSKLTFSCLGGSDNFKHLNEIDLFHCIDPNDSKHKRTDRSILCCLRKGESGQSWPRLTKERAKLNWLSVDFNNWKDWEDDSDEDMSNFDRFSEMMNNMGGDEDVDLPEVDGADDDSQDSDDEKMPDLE
Experimental: as §1
On the other hand, the AAPH cells, which were stably co-transfected with AHR-RL, AIP-HIS, P23-HIS and HSP-90YFP, were prepared and then mixed with different concentrations of 3MC and cultured in a 96-well white polystyrene plate (Corning, USA) at 37° C.

AHR-RL = biological target: T3, AHR-RL (Homo sapiens, UniProt P35869); experiment: Renilla luciferase signal of AHR-RL in cell-free AAPA whole cell lysate; format: biochemical; conditions: for detection limits / Renilla luciferase signals in the cell-free system: AAPA cell free lysate, 37° C.; for Renilla luciferase signals in the cell-free system: dose-dependent (FIGS. 4 and 5); for lowest concentration at which AHR-RL signal degradation can be detected: cell-free system
T3 construct: expressed in transfected cells; host or cells: sonicated, cleared lysate of tetracycline-induced AAPA cells (T-REx cells, Invitrogen)
T3 sequence (P35869 11-848): as the sequence (P35869 11-848) above
T3 sequence (P08238 whole entry partner): as the sequence (P08238 whole entry partner) above
T3 sequence (O00170 whole entry partner): as the sequence (O00170 whole entry partner) above
T3 sequence (Q15185 whole entry partner): as the sequence (Q15185 whole entry partner) above
Experimental: 5×10^6 AAPA cells obtained in Example 4 were cultured in a 15 cm dish containing 25 ml DMEM medium supplemented with 10% FBS and 3.5 μg/ml tetracycline for 24 hrs. The cells were harvested and re-suspended in 10 ml cold PBS. The cells were lysed by sonication on ice using sonicator (Branson, Danbury Conn., USA) at amplitude of 10% for 30 cycles of 5 sec on and 15 sec off. The cellular debris was removed by centrifugation at 1,000 g for 10 min. For detection, 90 μl cell free lysates and different concentrations of 3MC were mixed and cultured in 96 well white polystyrene plate (Corning, USA) at room temperature. Renilla luciferase signals were determined by addition of coelenterazine to a final concentration of 0.35 μM. The result for detecting TCDD was shown in FIG. 3 (y=136.97x+2251.9, R^2=0.9794).
In addition, the cell free lysates and different concentrations of 3MC and TCDD were mixed and cultured in 96 well white polystyrene plate (Costar) at 37° C., respectively.

T1 sequence (P35869 11-848): as the sequence (P35869 11-848) above
T1 sequence (P08238 whole entry partner): as the sequence (P08238 whole entry partner) above
T1 sequence (O00170 whole entry partner): as the sequence (O00170 whole entry partner) above
T1 sequence (Q15185 whole entry partner): as the sequence (Q15185 whole entry partner) above

**Q.** Which results are given for `Cc1ccc2cc3c(ccc4ccccc43)c3c2c1CC3` [3MC, 3-methylcholanthrene]?
**A.** BRET signals (AHR-RL and ARNT-YFP; AAPA cells, different concentrations, 37° C. for 1 hour, dose-dependent (FIG. 2B)): increased; concentration at which BRET signal induction was first observed (AHR-RL and ARNT-YFP): 1 pM; BRET signals (AHR-RL and HSP90-YFP): suppressed; detection limits (AHR-RL): 10^−16 M; Renilla luciferase signals in the cell-free system (AHR-RL): increased; lowest concentration at which AHR-RL signal degradation can be detected (AHR-RL): 10 aM

**Q.** `Clc1cc2c(cc1Cl)Oc1cc(Cl)c(Cl)cc1O2` [TCDD, 2,3,7,8-tetrachlorodibenzo-p-dioxin] was tested. Which “concentration at which BRET signal induction was first observed” value (AHR-RL and ARNT-YFP) did it give?
**A.** The value was 1 pM.

**Q.** What about the detection limits (AHR-RL) of the same compound?
**A.** Its detection limits is 10^−16 M.

**Q.** And the “Renilla luciferase signals in the cell-free system” value (AHR-RL)?
**A.** The value was “increased”.

**Q.** What about the “lowest concentration at which AHR-RL signal degradation can be detected” value (AHR-RL) of the same compound?
**A.** Its value is 10 aM.
